Read-outs that look alike come from different tables or passages of the source.

The values below come from patent US20230052517A1, “ELECTROCHEMICAL SENSING METHODS AND APPARATUS FOR DETERMINING DRUG UPTAKE AND RETENTION IN CELLS” (priority 2020, published 2023).

Series [1] has as its system Pseudomonas aeruginosa PAO1 (wild type strain, containing efflux pumps). Description: Tobramycin uptake by DPV of the supernatant, PAO1 strain. As to conditions: for Percentage of Tobramycin in Supernatant, PAO1: 2 mM Tobramycin, 1X PBS, 0.4% glucose, 37° C., DPV on GCE at pH 3. The series is classed as cell-based. How it is done:
(§1) (i.e. 15 minutes; 30 minutes and 60 minutes). […] Integration underneath the curves provides the charge.
(§2) The uptake of another antibiotic, Tobramycin (2 mM) was analyzed in Pseudomonas aeruginosa using DPV. […] As summarized in TABLE 3, the concentration of the control remains stable over different times of incubation at 37° C. […] At 15 min, the hyper-susceptible PAO750 removes about 26% of Tobramycin, which is slightly more than the wild type. […] A concentration of 2 mM Tobramycin appears to have been too high for the cells to withstand. […] As both of these strains are not resistant to Tobramycin, cell lysis at prolonged incubation times was expected.

Series [2] relates to Pseudomonas aeruginosa PAO750 (hyper-susceptible strain, efflux pumps deleted). The series is classed as cell-based. As to conditions: for Percentage of Tobramycin in Supernatant, PAO750: 2 mM Tobramycin, 1X PBS, 0.4% glucose, 37° C., DPV on GCE at pH 3. How it is done:
as §1, §2

A short description of series [3]: Control drug solution without bacterial cells incubated at 37° C., DPV. As to conditions: for Percentage of Tobramycin in Supernatant, Control: 2 mM Tobramycin in 1X PBS, 0.4% glucose without bacterial cells. As for the experimental part:
DPV measurements of 1 mM Cip were taken and after incubation, centrifugation was performed at 4000 rpm for 10 min and the supernatant was collected.
Similarly uptake of Tobramycin (2 mM), was analyzed in Pseudomonas aeruginosa also using DPV. The control solutions were tested before and after incubation at 37° C. and with different incubation times at 37° C. (i.e. 15 minutes; 30 minutes and 60 minutes). […] Integration underneath the curves provides the charge. This charge is proportional to the number of molecules transferred during DPV recordings (see FIGS. 11-14).

For series [4], the system named is Pseudomonas bacteria (PAO1 and PA262). As to conditions: not told. As for the experimental part: After 25 min of incubation, the bacteria suspension is centrifuged, cells are resuspended in PBS and drop-casted onto a 3-mm glassy carbon macroelectrode (see FIG. 1D). Other macroelectrode materials, such as gold, platinum, etc. could be employed in the same way. The electrode is then placed in a KCl solution and DPV is performed at a potential rage of zero to 1.0V. This potential range would be adjusted depending on the drug of interest.
When the electrode is placed in the KCl solution, various time intervals were applied before driving the oxidation reaction at the electrode.

Series [5] deals with A2780-s and A2780-cp ovarian cancer cells. The experiment in a line: SECM electrochemical response of ovarian cancer cells to carboplatin (FcCH2OH regeneration). The series is classed as cell-based. As for the experimental part:
Carboplatin-susceptible (A2780-s) and carboplatin-resistant (A2780-cp) ovarian cancer cells were grown in petri dishes at 37° C. until a confluence of approximately 60 to 70% was reached. Cells were exposed to a PBS solution containing 1 mM ferrocenemethanol (FcCH2OH) at 37° C. for 45 minutes. Following this incubation, the petri dish was inserted into a scanning electrochemical microscope (SECM), equipped with a camera, fluorescence unit and a heating stage. Target cells were identified using an approach curve and a horizontal line scan was carried out across the cells every 5 to 10 minutes. The solution in the petri dish was exchanged for a PBS solution containing 2 mM carboplatin and 1 mM ferrocenemethanol (FcCH2OH). Horizontal line scans were carried out every 5 to 10 minutes to record the electrochemical response by the cells.

Series [6] concerns carboplatin-susceptible and carboplatin-resistant ovarian cancer cell line. The experiment in a line: Voltammetric carboplatin uptake study in ovarian cancer cells. The series is classed as cell-based. The settings on record: one carboplatin-susceptible and one carboplatin-resistant cell line. How it is done:
Further work was done by the inventors^45 to evaluate the electrochemical detection of chemotherapeutic uptake by ovarian cancer cells, whereby an electrochemical characterization of carboplatin was evaluated for detection limits and pH dependence. Furthermore, bioelectrochemical studies quantified carboplatin uptake by ovarian cancer cells.

Turning to `NC[C@H]1O[C@H](O[C@H]2[C@H](O)[C@@H](O[C@H]3O[C@H](CO)[C@@H](O)[C@H](N)[C@H]3O)[C@H](N)C[C@@H]2N)[C@H](N)C[C@@H]1O` [Tobramycin], the “Percentage of Tobramycin in Supernatant, PAO1” value is reported as 80% in series [1] (15 minutes), 81% in series [1] (30 minutes) and 99% in series [1] (60 minutes). Further, in series [1] (2 mM, 60 min), the “uptake observation at prolonged incubation, PAO1” value is recorded as “A similar effect is seen in PAO1”. Moreover, the “Tobramycin taken up from the solution by PAO1” value in series [1] (2 mM, incubation times of 15 and 30 min) is listed as “approximately 20%”. In series [1] (PAO1, 2 mM), the “time to establishment of equilibrium of intracellular and extracellular Tobramycin” value is recorded as less than 15 min. In addition, the “Percentage of Tobramycin in Supernatant, PAO750” value in series [2] (15 minutes) worked out at 74%; in series [2] (30 minutes), 95%; in series [2] (60 minutes), 99%. In series [2] (2 mM, 15 min), the “Tobramycin removed by PAO750” value was “about 26%”. The “uptake observation at prolonged incubation, PAO750” value in series [2] (2 mM, 30 min) is “the uptake is failing, probably due to cell lysis of PAO750”. In addition, in series [3] (2 mM), the “stability of Tobramycin control solution (DPV currents before and after incubation)” value is given as “do not vary, indicating stable 2 mM Tobramycin concentrations”. Further, the entries for the “Percentage of Tobramycin in Supernatant, Control” value in series [3] (15 minutes), in series [3] (30 minutes) and in series [3] (60 minutes) were 99%, 99% and 95%, respectively.

As to `O=C(O)c1cn(C2CC2)c2cc(N3CCNCC3)c(F)cc2c1=O` [ciprofloxacin], in series [4], the “DPV current of drop-casted bacteria after incubation with drug (export from the bacteria)” value is “significant increase in current” and the “dependence of export current peak on wait time” value is on record as “a longer wait time results in a higher current peak”.

In the case of `N.N.O=C([O-])C1(C(=O)[O-])CCC1.[Pt+2]` [carboplatin], the “time for slope increase to relax back to its initial value” in series [5] (A2780-cp cells) is 5 to 10 min. Besides, the “change of slope (peak current vs scan velocity) after drug exposure” value in series [5] (A2780-cp cells, 2 mM carboplatin, 1 mM FcCH2OH) is recorded as “an increase in slope right after carboplatin exposure was observed”. The “difference in SECM response between susceptible and resistant cells” value in series [5] (A2780-s vs A2780-cp) was “A clear difference between carboplatin-susceptible and carboplatin-resistant cells”. For the same compound, the “drug uptake detected by voltammetry” value in series [6] was “demonstrated the detection of carboplatin uptake”.
